Data published in ChEMBL document CHEMBL1909046, “DrugMatrix in vitro pharmacology data”.

Assays:
[1] = DRUGMATRIX: Atrial Natriuretic Factor (ANF) radioligand binding (ligand: [125I] ANF (rat)); format: cell membranes, Cavia porcellus, Dunkin-Hartley, Adrenal gland, Membrane; details: Not Active = under 50% inhibition at 10 µM
[2] = DRUGMATRIX: Calcium Channel Type L, Dihydropyridine radioligand binding (ligand: [3H] Nitrendipine); format: cell membranes, Rattus norvegicus, Wistar, Cerebral cortex, Membrane; details: Not Active = under 50% inhibition at 10 µM
[3] = molecular target: Vasopressin V1a receptor (Homo sapiens, UniProt P37288); format: cell membranes, Membrane; details: hek293; further: in other assays of this panel Not Active means under 50% inhibition at 10 µM
[4] = molecular target: T1, 3-hydroxy-3-methylglutaryl-coenzyme A reductase (Homo sapiens, UniProt P04035); design: species or system Escherichia coli;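 further: enzyme inhibition assay of HMG-CoA reductase using radiolabeled [14C]HMG-CoA as substrate; in other assays of this panel Not Active means under 50% inhibition at 10 µM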
T1 sequence (P04035 whole entry): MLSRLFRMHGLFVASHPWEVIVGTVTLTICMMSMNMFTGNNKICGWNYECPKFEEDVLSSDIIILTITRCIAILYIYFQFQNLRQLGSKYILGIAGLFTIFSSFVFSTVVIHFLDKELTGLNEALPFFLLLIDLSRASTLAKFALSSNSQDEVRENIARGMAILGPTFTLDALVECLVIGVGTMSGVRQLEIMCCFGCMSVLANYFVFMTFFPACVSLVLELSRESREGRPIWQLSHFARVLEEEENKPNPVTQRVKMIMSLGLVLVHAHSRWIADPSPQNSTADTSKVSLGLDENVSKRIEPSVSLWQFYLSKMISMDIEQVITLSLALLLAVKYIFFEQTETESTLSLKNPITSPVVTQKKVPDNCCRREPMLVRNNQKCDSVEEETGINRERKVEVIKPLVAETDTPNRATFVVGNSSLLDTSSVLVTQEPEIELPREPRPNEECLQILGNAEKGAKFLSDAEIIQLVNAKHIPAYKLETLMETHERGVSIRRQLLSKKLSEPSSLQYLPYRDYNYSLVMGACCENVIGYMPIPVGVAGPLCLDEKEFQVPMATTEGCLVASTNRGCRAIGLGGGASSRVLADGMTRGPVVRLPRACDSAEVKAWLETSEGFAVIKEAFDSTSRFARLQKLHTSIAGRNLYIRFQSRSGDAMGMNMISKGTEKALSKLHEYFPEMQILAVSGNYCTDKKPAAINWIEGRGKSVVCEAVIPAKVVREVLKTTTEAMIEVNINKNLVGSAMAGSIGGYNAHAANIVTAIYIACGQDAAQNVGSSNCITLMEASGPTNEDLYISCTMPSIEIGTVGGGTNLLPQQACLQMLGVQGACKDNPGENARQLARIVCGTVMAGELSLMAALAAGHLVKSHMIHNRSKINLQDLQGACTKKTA

[5] = molecular target: T2, Polyunsaturated fatty acid lipoxygenase ALOX15 (Oryctolagus cuniculus, UniProt P12530); experiment: biochemical; format: tissue-based, Reticulocytes;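 further: inhibition of 15-lipoxygenase enzyme activity measured with linoleic acid as the substrate; in other assays of this panel Not Active means under 50% inhibition at 10 µM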
T2 sequence (P12530 whole entry): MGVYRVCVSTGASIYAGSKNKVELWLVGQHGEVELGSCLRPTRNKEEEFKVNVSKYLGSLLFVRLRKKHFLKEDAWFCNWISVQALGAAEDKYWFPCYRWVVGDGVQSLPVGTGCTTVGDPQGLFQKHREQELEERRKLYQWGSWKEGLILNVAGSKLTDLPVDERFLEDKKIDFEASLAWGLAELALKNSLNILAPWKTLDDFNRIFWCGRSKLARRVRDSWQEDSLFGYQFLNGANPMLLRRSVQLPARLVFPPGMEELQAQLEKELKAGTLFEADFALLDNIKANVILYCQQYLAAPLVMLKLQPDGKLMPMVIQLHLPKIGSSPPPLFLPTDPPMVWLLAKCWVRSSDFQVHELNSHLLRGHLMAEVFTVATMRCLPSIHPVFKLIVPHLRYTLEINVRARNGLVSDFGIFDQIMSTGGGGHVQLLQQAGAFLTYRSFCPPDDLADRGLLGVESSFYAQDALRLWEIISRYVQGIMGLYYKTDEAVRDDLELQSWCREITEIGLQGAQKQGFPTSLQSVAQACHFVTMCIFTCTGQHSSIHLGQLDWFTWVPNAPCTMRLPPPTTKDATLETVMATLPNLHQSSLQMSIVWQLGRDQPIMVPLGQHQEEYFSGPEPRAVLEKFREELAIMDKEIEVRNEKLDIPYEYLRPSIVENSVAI

[6] = molecular target: Melanocortin receptor 4 (Homo sapiens, UniProt P32245); format: cell membranes, HEK293, Membrane; details: hek293; further: in other assays of this panel Not Active means under 50% inhibition at 10 µM
[7] = molecular target: Tyrosine-protein kinase Fyn (Homo sapiens, UniProt P06241); experiment: biochemical; format: cell-based, Insect cells
Sequence of Tyrosine-protein kinase Fyn (P06241 whole entry): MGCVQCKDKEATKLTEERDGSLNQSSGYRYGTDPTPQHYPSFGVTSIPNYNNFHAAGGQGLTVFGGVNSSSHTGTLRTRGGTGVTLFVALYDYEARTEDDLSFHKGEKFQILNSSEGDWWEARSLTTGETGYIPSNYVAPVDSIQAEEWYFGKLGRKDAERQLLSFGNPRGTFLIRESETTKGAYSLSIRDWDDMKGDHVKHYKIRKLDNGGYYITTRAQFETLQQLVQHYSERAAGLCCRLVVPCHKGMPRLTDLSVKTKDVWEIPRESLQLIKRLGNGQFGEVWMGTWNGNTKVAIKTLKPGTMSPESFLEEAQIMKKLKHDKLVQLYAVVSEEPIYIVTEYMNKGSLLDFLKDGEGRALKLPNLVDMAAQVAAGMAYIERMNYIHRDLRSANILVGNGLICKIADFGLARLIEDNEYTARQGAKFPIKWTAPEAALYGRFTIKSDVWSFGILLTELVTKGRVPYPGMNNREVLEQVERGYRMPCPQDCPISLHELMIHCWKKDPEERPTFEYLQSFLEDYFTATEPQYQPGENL

Sequence of Melanocortin receptor 4 (P32245 whole entry): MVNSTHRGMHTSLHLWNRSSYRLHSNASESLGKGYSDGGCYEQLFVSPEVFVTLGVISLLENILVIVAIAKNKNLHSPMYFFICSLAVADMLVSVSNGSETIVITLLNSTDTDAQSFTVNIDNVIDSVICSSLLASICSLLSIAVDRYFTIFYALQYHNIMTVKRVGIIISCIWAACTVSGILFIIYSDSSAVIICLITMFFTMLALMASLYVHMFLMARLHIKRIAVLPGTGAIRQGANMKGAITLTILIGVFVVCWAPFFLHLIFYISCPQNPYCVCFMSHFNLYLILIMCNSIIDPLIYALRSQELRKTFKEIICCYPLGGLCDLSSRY
Sequence of Vasopressin V1a receptor (P37288 whole entry): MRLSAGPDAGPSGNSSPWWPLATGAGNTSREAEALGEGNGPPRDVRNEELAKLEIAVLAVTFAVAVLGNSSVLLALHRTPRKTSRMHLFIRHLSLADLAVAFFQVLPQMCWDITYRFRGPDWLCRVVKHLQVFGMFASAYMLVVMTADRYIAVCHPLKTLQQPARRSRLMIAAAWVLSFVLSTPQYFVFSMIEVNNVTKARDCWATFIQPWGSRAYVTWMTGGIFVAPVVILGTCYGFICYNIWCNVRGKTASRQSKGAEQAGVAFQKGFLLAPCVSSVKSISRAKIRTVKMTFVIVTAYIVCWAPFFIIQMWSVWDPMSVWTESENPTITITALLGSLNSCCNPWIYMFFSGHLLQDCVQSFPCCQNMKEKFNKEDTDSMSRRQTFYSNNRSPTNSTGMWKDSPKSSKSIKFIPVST

Molecule	IC50 [1]	Ki [1]	IC50 [2]	Ki [2]	IC50 [3]	IC50 [4]	IC50 ([5]; reticulocytes)	IC50 [6]	IC50 ([7]; insect cells)	Ki [3]	Ki [4]	Ki ([5]; reticulocytes)	Ki [6]	IC50 ([7]; insect cells, read-out: IC50) [nM]	IC50 ([7]; read-out: IC50) [nM]	IC50 ([5]; read-out: IC50) [nM]
CNCCc1ccccn1 [BETAHISTINE]	Not Active	Not Active	Not Active	Not Active	Not Active	Not Active	Not Active	Not Active	Not Active	–	–	–	–	–	–	–
O=C(O)CCCc1ccc(N(CCCl)CCCl)cc1 [CHLORAMBUCIL]	Not Active	Not Active	Not Active	Not Active	Not Active	Not Active	Not Active	Not Active	Not Active	–	–	–	–	–	–	–
NC(=O)N1c2ccccc2CCc2ccccc21	Not Active	Not Active	Not Active	Not Active	Not Active	Not Active	Not Active	Not Active	Not Active	–	–	–	–	–	–	–
NCCCCCC(=O)O [AMINOCAPROIC ACID]	Not Active	Not Active	Not Active	Not Active	Not Active	Not Active	Not Active	Not Active	Not Active	–	–	–	–	–	–	–
C=C(C)C1(O)OC(=O)C=C1OC (stereo unspecified) [PENICILLIC ACID]	Not Active	Not Active	Not Active	Not Active	Not Active	Not Active	Not Active	Not Active	Not Active	–	–	–	–	–	–	–
CC1(C)O[C@@H]2C[C@H]3[C@@H]4CCC5=CC(=O)CC[C@]5(C)[C@@]4(F)[C@@H](O)C[C@]3(C)[C@]2(C(=O)CCl)O1 [HALCINONIDE]	Not Active	Not Active	Not Active	Not Active	Not Active	Not Active	Not Active	Not Active	Not Active	–	–	–	–	–	–	–
LIPOPOLYSACCHARIDE E. COLI O55:B5	Not Active	Not Active	Not Active	Not Active	Not Active	Not Active	Not Active	Not Active	–	Not Active	Not Active	Not Active	Not Active	191	–	–
COc1cc2c3cc1Oc1cc(ccc1O)C[C@@H]1c4c(cc(OC)c(O)c4Oc4ccc(cc4)C[C@@H]3N(C)CC2)CC[N+]1(C)C.[Cl-]	Not Active	Not Active	Not Active	Not Active	Not Active	Not Active	Not Active	Not Active	Not Active	–	–	–	–	–	–	–
Cc1cc(C(C#N)c2ccc(Cl)cc2)c(Cl)cc1NC(=O)c1cc(I)cc(I)c1O (stereo unspecified) [CLOSANTEL]	Not Active	Not Active	Not Active	Not Active	Not Active	Not Active	Not Active	Not Active	–	–	–	–	–	–	939	–
CC(NC(C)(C)C)C(=O)c1cccc(Cl)c1 (stereo unspecified) [BUPROPION]	Not Active	Not Active	Not Active	Not Active	Not Active	Not Active	Not Active	Not Active	Not Active	–	–	–	–	–	–	–
Cc1onc(-c2ccccc2Cl)c1C(=O)N[C@@H]1C(=O)N2[C@@H]1SC(C)(C)[C@@H]2C(=O)O [CLOXACILLIN]	Not Active	Not Active	Not Active	Not Active	Not Active	Not Active	Not Active	Not Active	Not Active	–	–	–	–	–	–	–
CNCCCN1c2ccccc2CCc2ccccc21 [DESIPRAMINE]	Not Active	Not Active	Not Active	Not Active	Not Active	Not Active	Not Active	Not Active	Not Active	–	–	–	–	–	–	–
C[C@]12CC[C@@H]3c4ccc(O)cc4CC[C@H]3[C@@H]1CCC2=O [ESTRONE]	Not Active	Not Active	Not Active	Not Active	Not Active	Not Active	–	Not Active	Not Active	–	–	–	–	–	–	6590
C[C@]12CCC(=O)C=C1CC[C@@H]1[C@@H]2CC[C@@]2(C)[C@H]1CC[C@]2(C)O [METHYLTESTOSTERONE]	Not Active	Not Active	Not Active	Not Active	Not Active	Not Active	Not Active	Not Active	Not Active	–	–	–	–	–	–	–
CC(=O)O[C@@]12CO[C@@H]1C[C@H](O)[C@@]1(C)C(=O)[C@H](O)C3=C(C)[C@@H](OC(=O)[C@H](O)[C@@H](NC(=O)OC(C)(C)C)c4ccccc4)C[C@@](O)([C@@H](OC(=O)c4ccccc4)[C@H]21)C3(C)C.O.O.O [DOCETAXEL]	Not Active	Not Active	Not Active	Not Active	Not Active	Not Active	Not Active	Not Active	Not Active	–	–	–	–	–	–	–
Nc1ncn([C@@H]2O[C@H](CO)[C@@H](O)[C@H]2O)c(=O)n1 [AZACITIDINE]	Not Active	Not Active	Not Active	Not Active	Not Active	Not Active	Not Active	Not Active	Not Active	–	–	–	–	–	–	–
C[C@](N)(Cc1ccc(O)c(O)c1)C(=O)O [METHYLDOPA]	Not Active	Not Active	Not Active	Not Active	Not Active	Not Active	–	Not Active	–	–	–	–	–	–	5180	2130
O=C(CCCN1CC=C(n2c(=O)[nH]c3ccccc32)CC1)c1ccc(F)cc1 [DROPERIDOL]	Not Active	Not Active	Not Active	Not Active	Not Active	Not Active	Not Active	Not Active	Not Active	–	–	–	–	–	–	–
CN(C)CCCN1c2ccccc2Sc2ccccc21 [PROMAZINE]	Not Active	Not Active	Not Active	Not Active	Not Active	Not Active	Not Active	Not Active	Not Active	–	–	–	–	–	–	–
CN(C)c1nc(N(C)C)nc(N(C)C)n1 [ALTRETAMINE]	Not Active	Not Active	Not Active	Not Active	Not Active	Not Active	Not Active	Not Active	Not Active	–	–	–	–	–	–	–
CC1CC(OC(=O)C(O)c2ccccc2)CC(C)(C)C1 (stereo unspecified) [CYCLANDELATE]	Not Active	Not Active	Not Active	Not Active	Not Active	Not Active	Not Active	Not Active	Not Active	–	–	–	–	–	–	–
CCCN1C[C@H](CSC)C[C@@H]2c3cccc4[nH]cc(c34)C[C@H]21 [PERGOLIDE]	Not Active	Not Active	Not Active	Not Active	Not Active	Not Active	Not Active	Not Active	Not Active	–	–	–	–	–	–	–
c1ccc2c(c1)c1cccc3ccc4cccc2c4c31 [BENZO[E]PYRENE]	Not Active	Not Active	Not Active	Not Active	Not Active	Not Active	Not Active	Not Active	Not Active	–	–	–	–	–	–	–
